The source of these data is patent publication US8212022B2, “Effect of carbohydrate concentration on sucralose extraction efficiency” (Tate & Lyle Technology Limited, priority 2008, dated 2012).

This series in a line: Partition coefficient K of sucralose between ethyl acetate and water (equal volumes). The following applies: for partition coefficient, K: equal volumes of ethyl acetate and water. The class given is physicochemical. The source says: Unless the context indicates otherwise, in the specification and claims, the terms organic solvent, first organic solvent, second organic solvent, tetrachloro saccharide, trichloro saccharide, dichloro saccharide, salt, sucralose-6-ester, carbohydrate, and similar terms also include mixtures of such materials. The term saccharide includes monosaccharide, disaccharides, and polysaccharides. Solvent means a liquid that dissolves another material. An aqueous solvent is one in which water is the primary (greater than 50 vol % of the solvents present) or only solvent. Partition coefficient, K, of a carbohydrate between an organic solvent and water is the concentration of the carbohydrate in the organic phase divided by the concentration of the carbohydrate in the aqueous phase when equal volumes of organic solvent and water are used. […] Crystallization includes processes in which a solution is rendered saturated or supersaturated with respect to a dissolved component, and the formation of crystals of this component is achieved. The initiation of crystal formation can be spontaneous, or it can require the addition of seed crystals. Crystallization also describes the situation in which a solid or liquid material is dissolved in a solvent to yield a solution which is then rendered saturated or supersaturated so as to obtain crystals. Also, included in the term crystallization are the ancillary processes of washing the crystals with one or more solvents, drying the crystals, and harvesting the final product so obtained. Unless otherwise specified, all percentages are percentages by weight, all temperatures are in degrees Centigrade (degrees Celsius), and all solvent ratios are volume to volume.
Aqueous solutions of sucralose were prepared at various carbohydrate concentrations. An equal volume of ethyl acetate was then added to each solution and the two phases mixed thoroughly. After the two phases separated, the carbohydrate concentration in each phase was determined. The K value was calculated by dividing the concentration of sucralose in the ethyl acetate phase by the concentration of sucralose in the aqueous phase.

For `OC[C@H]1O[C@H](O[C@]2(CCl)O[C@H](CCl)[C@@H](O)[C@@H]2O)[C@H](O)[C@@H](O)[C@H]1Cl` [sucralose, 4,1′,6′-trichloro-4,1′,6′-trideoxygalactosucrose], the “partition coefficient, K” value is 0.4 (initial concentration of sucralose in the aqueous phase about 5 wt %), “about 1.1” (initial concentration of sucralose in the aqueous phase about 15 wt %) and “about 1.2” (initial concentration of sucralose in the aqueous phase about 16 wt %).
`CC(=O)OC[C@H]1O[C@H](O[C@]2(CCl)O[C@H](CCl)[C@@H](O)[C@@H]2O)[C@H](O)[C@@H](O)[C@H]1Cl` [sucralose-6-acetate]: the “partition coefficient compared with sucralose” value (organic solvent such as ethyl acetate and water, equal volumes, same conditions as sucralose) is reported as “larger that the corresponding value for sucralose”.
